Square brackets hold non-standard residues; d marks the D form. Peptide text beside a SMILES is read from it. * marks the point of attachment. Sta = CC(C)C[C@H](N)[C@@H](O)CC(=O)O; Isovaleryl = CC(C)CC(=O)*
How the values were obtained:
isolate PI12 = assay: Antibiotic resistance of isolate PI12; format: cell-based, Leucosporodium antarcticum
Description: The bacterium was grown in nutrient broth and agar plates at 4° C. without shaking. Visible growth was observed after one week of incubation. […] The growth of isolate PI12 was inhibited at 25-37° C.
Extracellular enzyme activities, by isolate PI12 namely protease and lipase, were also observed.

LipPI12 lipase [1] = assay: Effect of metal ions on LipPI12 lipase activity; format: biochemical, Leucosporodium antarcticum PI12; details: 1 mM metal ion, 30 min at 20° C.
Description: (§1) Both the lipase and protease were treated with 1 mM of various metal ions for 30 mins prior to enzyme assays. Lipase activity ?; protease activity ? .
(§2) Various metal ions were tested by treating the purified enzyme with 1 mM of metal ions such as Na^+, Mg^2+, Ca^2+, Fe^2+, Mn^2+, K^+, Zn^2+ and Cu^2+ for 30 min at 20° C. It was subjected to lipase and protease assays after treatment. The effects of various metal ions were tested on the purified LipPI12 activity and the remaining activity was assayed using olive oil emulsion. […] This is an indication which explains the role of Ca ion which may work as a stabilizer to the molecule, as predicted in the LipPI12 3D model. Whereas, the beta roll motif, served as a metal binding site, presumably predicted for the Ca ions. […] Na^+ Mg^2+ and Fe^2+ have toxic effect to the enzyme. Other metal ions tested were CuCl2, ZnCl2 and MnCl2, which had obviously made the lipase to be slightly stable and with no elimination of activity relatively not less than 50% (FIG. 27).

LipPI12 protease [2] = assay: Effect of metal ions on LipPI12 protease activity; format: biochemical, Leucosporodium antarcticum PI12; details: 1 mM metal ion, 30 min at 20° C.
Description: as §1, §2
Protease LipPI12 looks more susceptible to all metal ions tested. […] The incubation with Na^+ and […] ions had done little effect as compared to the destabilizing manner shown by divalent ions of Cu^2+ and Mn^2+. […] A novel binding site for Zn ion may be involved in protease LipPI12. Structural elucidation is the best way to decipher the findings. The activation effect of Ca ion in both lipase and protease of LipPI12 is caused by the nature of the psychrophilic enzyme. Huge conformational movement will probably allow active residue rearrangement and can provide better accessibility of substrate, thus giving rise to a unique enzyme like LipPI12. This is achieved via local flexibility and mobility as the enzyme from psychrophiles evolves to withstand the extreme conditions, not only the coldness but also the low water content and substrate availability. Metal ions have been recognized to have effects on the activity of various enzymes. They bind the substrate and orient them properly for the reaction to occur. Besides mediating oxidation-reduction reactions, they can also electrostatically stabilize or shield negative charges. On the other hand, based on the correlation between the enzymes and metal ions, these enzymes could be classified into two types: Metalloenzymes and Metal-activated enzyme. In Metalloenzyme, metal ions such as Fe, Cu, Mn, Co are tightly bound ion pairs. While in the metal-activated enzymes, the metal ions such as Na, K, Mg, and Ca are loosely bound metal ions from the solution. Based on these facts, the protease LipPI12 is considered as a metal-activated enzyme.

LipPI12 lipase [3] = assay: Organic solvent tolerance of LipPI12 lipase; format: biochemical, Leucosporodium antarcticum PI12; details: 3 ml enzyme solution + 1 ml solvent, 20° C., 30 min
Description: (§3) Protease activity ?; Lipase activity ? .
(§4) Study On LipPI12 organic solvent stability was carried out in reaction mixture containing purified LipPI12 and various solvents. The mixture was incubated at 20° C. with shaking rates at 150 rpm for 30 min. Control reaction was done by mixing the enzyme with water. Relative activity of lipase was determined according Kwon and Rhee (1986) method. Whereby protease assay was done according to Brock et, al., (1982). The effects of various organic solvents on the stability of the cold active LipPI12 were studied. A mixture of 3 ml enzyme solution and 1 ml of an organic solvent was incubated at 20° C. with shaking, and the remaining activity was measured after 30 min of incubation.

LipPI12 lipase [4] = assay: Effect of inhibitors on LipPI12 lipase activity; format: biochemical, Leucosporodium antarcticum PI12; details: 1 mM inhibitor, 20° C., 30 min
Description: (§5) The final concentration of inhibitors was 1 mM. The LipPI12 lipase and protease were assayed with olive oil as substrate after incubation with inhibitors for 30 min.
(§6) Partial understanding of the enzyme catalysis involves the reaction with various inhibitors. […] Various inhibitors were tested at a final concentration of 1 mM (PMSF, EDTA and pepstatin). The purified enzyme was treated with various inhibitors at 20° C. for 30 min prior to measuring the residual activity colorimetrically.

LipPI12 protease [5] = assay: Effect of inhibitors on LipPI12 protease activity; format: biochemical, Leucosporodium antarcticum PI12; details: 1 mM inhibitor, 20° C., 30 min
Description: as §5, §6

LipPI12 protease [6] = assay: Effect of surfactants on LipPI12 protease activity; format: biochemical, Leucosporodium antarcticum PI12; details: 0.1% surfactant, 20° C., 30 min
Description: (§7) The purified LipPI12 lipase and protease were mixed with surfactants (final concentration of 0.1%, v/v) and was incubated at 20° C. for 30 min prior to enzymatic assays. Lipase activity ?; Protease activity ? .
(§8) Surfactants or surface active agents are the most important constituents in the formulation of detergent. Enzyme and surfactants form unique interactions that affect the function of enzyme, i.e. whether to stabilize or destabilize. […] Lipase and protease LipPI12 was treated with various surfactants at a concentration of […] at 20° C. for 30 min before being subjected to lipase and protease assays colorimetrically. The study on the effect of LipPI12 lipase and its protease on various surfactants was carried out using 0.1% of surfactant, namely from TWEEN™ 20-80, TRITON™ X-100, SDS and SLS. […] Remarkably, LipPI12 protease was activated in the presence of TWEEN™ 80 and SLS, with 30 and 70% enhancement, respectively. […] The incubation with SDS also seemed to affect LipPI12 protease catalytic activity, where it dropped to only 27% of its control activity.

LipPI12 protease [7] = assay: Organic solvent tolerance of LipPI12 protease; format: biochemical, Leucosporodium antarcticum PI12; details: 3 ml enzyme solution + 1 ml solvent, 20° C., 30 min
Description: as §3, §4

LipPI12 lipase [8] = assay: Substrate specificity of LipPI12 lipase, para-nitrophenyl esters; format: biochemical, Leucosporodium antarcticum PI12; details: versus butyrate (C4), caprylate (C8), laurate (12)
Description: Values in bracket represent the fatty acid carbon chain length.
(§9) Various triglycerides (triacetin, tributyrin, tricaprylin, triolein) p-nitrophenol esters (p-nitrophenylbutyrate, p-nitrophenylcaprylate, p-nitrophenyllaurate, p-nitrophenylpalmitate) and natural oils (olive oil, soy bean oil, corn oil, sun flower oil, rice brain oil, coconut and palm oil) were tested for the cold active LipPI12 lipase activity. It was assayed at 20° C. for 30 min colorimetrically. The capability of the LipPI12 to hydrolyze different carbon chain lengths of triglycerides was investigated. […] LipPI12 lipase substrate specificity towards medium chain length was also observed in natural oils. […] LipPI12 low efficiency or inability to catalyze such substrate was probably due to improper substrate and active coordination and limited substrate accessibility as a result of cis conformation of aliphatic chain when compared to the trans conformation which is much linear. Artificial substrate was also used in the form of esters, namely para-nitrophenyl (pNP) esters containing carbon chain ranging from C4 (butyrate) to C16 (palmitate). […] Certainly, LipPI12 broad substrate specificity, which posed a huge prospect in application and the understanding of mechanism, is important. Nonetheless, the profile of substrate is a crucial point, where accessibility determines substrate specificity. […]

LipPI12 lipase [9] = assay: Substrate specificity of LipPI12 lipase, pure triglycerides; format: biochemical, Leucosporodium antarcticum PI12; details: 20° C., 30 min, substrate 1:1 v/v
Description: Values in bracket represent the carbon chain length of each substrate. LipPI12 lipase was assayed with the pure triglycerides (1:1, v/v) as substrate.
as §9, with “important.” for “important. Nonetheless, the profile of substrate is a crucial point, where accessibility determines substrate specificity.”

LipPI12 lipase [10] = assay: Effect of surfactants on LipPI12 lipase activity; format: biochemical, Leucosporodium antarcticum PI12; details: 0.1% surfactant, 20° C., 30 min
Description: as §7, §8
Target sequence in this assay (as listed by the source): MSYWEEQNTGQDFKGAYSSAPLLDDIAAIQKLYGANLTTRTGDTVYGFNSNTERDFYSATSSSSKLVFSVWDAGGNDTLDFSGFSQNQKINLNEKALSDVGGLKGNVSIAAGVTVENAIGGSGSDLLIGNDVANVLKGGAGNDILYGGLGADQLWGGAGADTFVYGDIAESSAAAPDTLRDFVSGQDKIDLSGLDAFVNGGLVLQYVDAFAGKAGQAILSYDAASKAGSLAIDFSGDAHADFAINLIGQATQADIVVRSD

CC1(C)S[C@@H]2[C@H](NC(=O)[C@H](N)c3ccccc3)C(=O)N2[C@H]1C(=O)O [Ampicilin]
resistance of isolate PI12 (isolate PI12): resistance

[Ca+2].[Cl-].[Cl-] [CaCl2]
effect of metal ion on lipase activity (LipPI12 lipase [1]): activator | lipase activity as compared to the control (LipPI12 lipase [1]; olive oil emulsion): 115% | protease relative activity as compared to the control (LipPI12 protease [2]): ~100%

O=C(N[C@H](CO)[C@H](O)c1ccc([N+](=O)[O-])cc1)C(Cl)Cl [Chloramphenicol]
resistance of isolate PI12 (isolate PI12): resistance

[Cl][Cu][Cl] [CuCl2]
effect of metal ion on protease activity (LipPI12 protease [2]): do not affect | protease relative activity as compared to the control (LipPI12 protease [2]): 4%

CCOCC [Diethyleter]
effect of organic solvent on lipase (LipPI12 lipase [3]): total elimination of activity

O=C(O)CN(CCN(CC(=O)O)CC(=O)O)CC(=O)O [EDTA, ethylene diamine tetraacetic acid]
inhibition of lipase (LipPI12 lipase [4]): partially inhibited | inhibition of protease (words) (LipPI12 protease [5]): partially inhibited

[Cl][Fe]([Cl])[Cl] [FeCl3]
effect of metal ion on protease activity (LipPI12 protease [2]): do not affect

[Fe+2] [Fe^2+]
effect of metal ion on lipase activity (LipPI12 lipase [1]): toxic effect | protease relative activity as compared to the control (LipPI12 protease [2]): ~100%

[K+] [IC]
effect of metal ion on protease activity (LipPI12 protease [2]): little effect

[Cl-].[Cl-].[Mg+2] [Mg^2+, MgCl2]
effect of metal ion on lipase activity (LipPI12 lipase [1]): toxic effect | effect of metal ion on protease activity (LipPI12 protease [2]): activator | protease relative activity as compared to the control (LipPI12 protease [2]): ~100%

[Cl][Mn][Cl] [MnCl2]
protease relative activity as compared to the control (LipPI12 protease [2]): 40%

[Na+] [Na^+]
effect of metal ion on lipase activity (LipPI12 lipase [1]): toxic effect | effect of metal ion on protease activity (LipPI12 protease [2]): little effect

O=S(=O)(F)Cc1ccccc1 [PMSF, phenylmethylsulphonyl fluoride]
inhibition of lipase (LipPI12 lipase [4]): partially inhibited | inhibition of protease (words) (LipPI12 protease [5]): partially inhibited

CC(C)CC(=O)N[C@H](C(=O)N[C@H](C(=O)N[C@@H](CC(C)C)[C@@H](O)CC(=O)N[C@@H](C)C(=O)N[C@@H](CC(C)C)[C@@H](O)CC(=O)O)C(C)C)C(C)C [Pepstatin] (Isovaleryl-VV[Sta]A[Sta]-OH)
inhibition of protease (words) (LipPI12 protease [5]): drastically eliminated | inhibition of protease (words) (LipPI12 protease [5]; listed as pepstatin): inhibited

CCCCCCCCCCCCOS(=O)(=O)[O-].[Na+] [SDS]
protease activity remaining, of control activity (LipPI12 protease [6]): 27%

CCCCCCCCCCCCOS(=O)(=O)[O-].[Na+] [SLS, Sodium lauryl sulphate]
enhancement of protease activity (LipPI12 protease [6]): 70%

[Cl-].[Cl-].[Zn+2] [ZnCl2]
effect of metal ion on protease activity (LipPI12 protease [2]): activator | protease relative activity as compared to the control (LipPI12 protease [2]): 170%

O=S(=O)([O-])[O-].[Zn+2] [ZnSO4]
effect of metal ion on protease activity (LipPI12 protease [2]): do not affect

c1ccccc1 [benzene]
effect of organic solvent on lipase (LipPI12 lipase [3]): good stability

CCCCCCCCCC [decane]
effect of organic solvent on lipase (LipPI12 lipase [3]): total elimination of activity

CCCCCCCCCCCC [dodecane]
effect of organic solvent on lipase (LipPI12 lipase [3]): good stability

CCCCCCCCCCCCCCCC [hexadecane]
effect of organic solvent on lipase (LipPI12 lipase [3]): good stability | effect of organic solvent on protease (LipPI12 protease [7]): tolerance

CCCCCC [hexane]
effect of organic solvent on lipase (LipPI12 lipase [3]): total elimination of activity

CCCCCCCCCCCCCCCC(=O)Oc1ccc([N+](=O)[O-])cc1 [pNP palmitate, p-nitrophenylpalmitate]
increment of activity relative to other pNP esters (LipPI12 lipase [8]): 60%

CCCO [propanol]
lipase activity in solvent (LipPI12 lipase [3]; control in water): > 160%

Cc1ccccc1 [toluene]
decrease of lipase activity (LipPI12 lipase [3]): more than 50%

CCCCCCCCCCCC(=O)OCC(COC(=O)CCCCCCCCCCC)OC(=O)CCCCCCCCCCC [trilaurin]
relative activity, triglyceride as substrate (LipPI12 lipase [9]): 100%

TRITON™ X-100
effect of surfactant on lipase activity (LipPI12 lipase [10]): retains its activity | effect of surfactant on protease activity (LipPI12 protease [6]): retain its activity

TWEEN™ 40
effect of surfactant on lipase activity (LipPI12 lipase [10]): retains its activity | effect of surfactant on protease activity (LipPI12 protease [6]): retain its activity

TWEEN™ 60
effect of surfactant on lipase activity (LipPI12 lipase [10]): retains its activity | effect of surfactant on protease activity (LipPI12 protease [6]): retain its activity

TWEEN™ 80
enhancement of protease activity (LipPI12 protease [6]): 30%

dimethylsulfonyl
increase of lipase activity (LipPI12 lipase [3]): ~80% | effect of organic solvent on protease (LipPI12 protease [7]): tolerance

Source: patent US8623996B2, “Cold active enzyme and method thereof” (University Putra Malaysia, priority 2010, dated 2014)
